In publication PMC4403932 (Journal of Medicinal Chemistry, 2015):
Several values for one entry are separate records, joined by “and”; a condition that tells them apart may be missing. Equal entries are not always repeated.

Assays:
BRD3(1) [1] = molecular target: T1, BRD3(1) (Homo sapiens, UniProt Q15059); assay: Isothermal titration calorimetry, BRD3(1); assay type: binding; conditions: for LE (ligand efficiency): LE = ΔG/N, N number of non-hydrogen atoms
T1 construct: Fragments were tested in a thermal shift assay against bromodomains of the BET subfamily; made in house
Description: Experiments were carried out on an ITC200 titration microcalorimeter from MicroCal, LLC (GE Healthcare) equipped with a Washing module, with a cell volume of 0.2003 mL, and a 40 μL microsyringe. Experiments were carried out at 15 °C while stirring at 1000 rpm, in ITC buffer (50 mM HEPES, pH 7.5 (at 25 °C), 150 mM NaCl). The microsyringe was loaded with a solution of the protein sample (300−740 μM protein for BRD9 and BRD4(1), respectively, in ITC buffer) and was carefully inserted into the calorimetric cell which was filled with an amount of the ligand (0.2 mL, 20–25 μM in ITC buffer). The system was first allowed to equilibrate until the cell temperature reached 15 °C, and an additional delay of 60 s was applied. All titrations were conducted using an initial control injection of 0.3 μL followed by 38 identical injections of 1 μL with a duration of 2 s (per injection) and a spacing of 120 s between injections. The titration experiments were designed in such a fashion as to ensure complete saturation of the proteins before the final injection. The heat of dilution for the proteins was independent of their concentration and corresponded to the heat observed from the last injection, following saturation of ligand binding, thus facilitating the estimation of the baseline of each titration from the last injection. The collected data were corrected for protein heats of dilution (measured on separate experiments by titrating the proteins into ITC buffer) and deconvoluted using the MicroCal Origin software supplied with the instrument to yield enthalpies of binding (ΔH) and binding constants (KB) in the same fashion as that previously described in detail by Wiseman and co-workers.[66] Thermodynamic parameters were calculated using the basic equation of thermodynamics (ΔG = ΔH – TΔS = −RT ln KB, where ΔG, ΔH, and ΔS are the changes in free energy, enthalpy, and entropy of binding, respectively). In all cases a single binding site model was employed, supplied with the MicroCal Origin software package.

BRD9 = molecular target: T2, BRD9 (Homo sapiens, UniProt Q9H8M2); assay: Isothermal titration calorimetry, BRD9; assay type: binding; conditions: for Kd: 50 mM HEPES pH 7.5, 150 mM NaCl, triplicate, read-out: KD; for Kd / N (stoichiometry) / ΔHobs: reverse titration; for LE (ligand efficiency): LE = ΔG/N, N number of non-hydrogen atoms
T2 construct: made in house
T2 sequence (Q9H8M2 136-240 limits assumed): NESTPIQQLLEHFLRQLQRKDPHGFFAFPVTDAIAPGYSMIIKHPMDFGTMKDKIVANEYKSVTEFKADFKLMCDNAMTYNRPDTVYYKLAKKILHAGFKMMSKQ

BRD2(2) = molecular target: T3, BRD2(2) (Homo sapiens, UniProt P25440); assay: Protein stability (thermal) shift assay, BRD2(2); assay type: binding; conditions: compound 10 μM, protein 2 μM; average of triplicate
T3 construct: made in house

BRD9 bromodomain = molecular target: T4, BRD9 bromodomain (Homo sapiens, UniProt Q9H8M2); assay: NanoBRET assay, NanoLuc-BRD9 bromodomain / histone H3.3-HaloTag in HEK293 cells; assay type: cell-based; conditions: 0.005-33 μM, 18 h, read-out: cellular (apparent) IC50, displacement of NanoLuc-BRD9 bromodomain from histone H3.3
T4 construct: Q9H8M2-BRD amino acids 120–240; expressed in transfected cells; host or cells: HEK293
T4 sequence (Q9H8M2 120-240): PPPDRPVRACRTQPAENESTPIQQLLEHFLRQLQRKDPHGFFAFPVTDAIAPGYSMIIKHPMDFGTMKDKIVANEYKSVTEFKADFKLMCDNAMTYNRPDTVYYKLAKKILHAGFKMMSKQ
Description: Twenty hours post-transfection 2 × 10^4 cells were trypsinized, washed with PBS, and exchanged into media containing phenol red-free DMEM, 10% FBS in the absence (control sample), or the presence (experimental sample) of 100 nM NanoBRET 618 fluorescent ligand (Promega). Cell density was adjusted to 2 × 10^5 cells/mL and then replated in a 96-well assay white plate (Corning Costar no. 3917). At the time of replating compound 7d or 11 were added at a final concentration spanning from 0.005 to 33 μM and the plates were incubated for 18 h at 37 °C in the presence of 5% CO2. NanoBRET substrate (Promega) was added to both control and experimental samples at a final concentration of 10 μM. Readings were performed within 5 min using the CLARIOstar reader (BMG Lifetechnologies) equipped with 450/80 nm bandpass and 610 nm long-pass filters. A corrected BRET ratio was calculated and is defined as the ratio of the emission at 610 nm/450 nm for experimental samples (i.e., those treated with NanoBRET fluorescent ligand) subtracted by and the emission at 610 nm/450 nm for control samples (not treated with NanoBRET fluorescent). BRET ratios are expressed as milliBRET units (mBU), where 1 mBU corresponds to the corrected BRET ratio multiplied by 1000.

BRDT(1) = molecular target: T5, BRDT(1) (Homo sapiens, UniProt Q58F21); assay: Protein stability (thermal) shift assay, BRDT(1); assay type: binding; conditions: compound 10 μM, protein 2 μM; average of triplicate
T5 construct: made in house

BRD3(2) = molecular target: T6, BRD3(2) (Homo sapiens, UniProt Q15059); assay: Protein stability (thermal) shift assay, BRD3(2); assay type: binding; conditions: compound 10 μM, protein 2 μM; average of triplicate
T6 construct: made in house

PB1(5) = molecular target: T7, PB1(5) (Homo sapiens, UniProt Q86U86); assay: Protein stability (thermal) shift assay, PB1(5); assay type: binding; conditions: compound 10 μM, protein 2 μM; average of triplicate
T7 construct: made in house

BRD3(1) [2] = molecular target: T1, BRD3(1); assay: Protein stability (thermal) shift assay, BRD3(1); assay type: binding; conditions: compound 10 μM, protein 2 μM; average of triplicate

T1 sequence (Q15059 34-140 limits assumed): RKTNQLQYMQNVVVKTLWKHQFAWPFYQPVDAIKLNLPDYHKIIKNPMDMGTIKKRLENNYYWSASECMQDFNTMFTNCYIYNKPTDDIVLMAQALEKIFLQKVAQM
T6 sequence (Q15059 306-415 limits assumed): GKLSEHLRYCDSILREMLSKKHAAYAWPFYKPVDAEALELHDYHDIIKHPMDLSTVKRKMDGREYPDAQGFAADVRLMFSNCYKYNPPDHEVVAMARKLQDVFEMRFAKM
T3 sequence (P25440 344-453 limits assumed): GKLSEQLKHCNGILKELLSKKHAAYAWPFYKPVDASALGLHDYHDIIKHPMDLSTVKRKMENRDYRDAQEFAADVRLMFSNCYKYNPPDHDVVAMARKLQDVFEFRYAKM
T7 sequence (Q86U86 653-763 limits assumed): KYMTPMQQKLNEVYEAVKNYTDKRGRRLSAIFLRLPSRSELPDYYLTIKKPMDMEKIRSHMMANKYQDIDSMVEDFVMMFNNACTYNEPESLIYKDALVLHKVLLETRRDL

Row | Kd (BRD3(1) [1]; ITC, 50 mM HEPES pH 7.5, 150 mM NaCl, 15 °C, reverse titration, triplicate) | TΔS (BRD3(1) [1]; ITC, 15 °C) | ΔG (BRD3(1) [1]; ITC, 15 °C) | N (stoichiometry) (BRD3(1) [1]; ITC, 15 °C, reverse titration) | ΔHobs (BRD3(1) [1]; ITC, 15 °C, reverse titration) | LE (ligand efficiency) (BRD3(1) [1]) | Kd (BRD9; ITC, 15 °C) | ΔG (BRD9; ITC, 15 °C) | N (stoichiometry) (BRD9; ITC, 15 °C) | ΔHobs (BRD9; ITC, 15 °C) | LE (ligand efficiency) (BRD9) | ΔTm at 10 µM (BRD2(2)) | IC50 (BRD9 bromodomain) | ΔTm at 10 µM (BRDT(1)) | ΔTm at 10 µM (BRD3(2)) | ΔTm at 10 µM (PB1(5)) | ΔTm at 10 µM (BRD3(1) [2]) | TΔS (BRD9; ITC, 15 °C) | Structure (SMILES)
1 | 2040 ± 105 nM | 0.33 kcal/mol | –7.50 kcal/mol | 1.01 ± 0.009 | –7.17 ± 0.09 kcal/mol | 0.39 | 397 ± 19 nM | –8.45 kcal/mol | 0.97 ± 0.005 | –9.63 ± 0.06 kcal/mol | 0.44 | 0.9 °C | 3500 nM | 0.0286 °C | 0.7 °C | 1.6 °C | 2.1 °C | – | COc1ccc(Br)cc1-c1nc(N)nc2[nH]cnc12 [Compound 7d, 2-Amino-6-(5-bromo-2-methoxyphenyl)-9H-purine]
2 | – | 0.33 kcal/mol | –7.50 kcal/mol | 1.01 ± 0.009 | –7.17 ± 0.09 kcal/mol | 0.38 | 278 ± 15 nM | –8.65 kcal/mol | 1.03 ± 0.003 | –10.28 ± 0.04 kcal/mol | 0.43 | 4.3 °C | 480 nM and 477 nM | 1.7 °C | 5.4 °C | 0.8 °C | 3.7 °C | –1.63 kcal/mol | Nc1nc(-c2cc(Br)cc3c2OCC3)c2nc[nH]c2n1 [Compound 11, 2-Amino-6-(5-bromo-2,3-dihydrobenzo[b]furan-7-yl)-9H-purine]
